Values quoted from earlier work as cited in PubChem BioAssay AID1259410 (Chemical Carcinogenesis Research Information System (CCRIS), 2018).
Numbered stars: 1 amine (or outer) side, 2 acyl side, 3 side chain; on linkers, the order of the positions; unused ones are H or OH. Square brackets hold non-standard residues; d marks the D form. Peptide text beside a SMILES is read from it. X1 = O=C(C(N[*:1])c1ccc(OS(=O)(=O)O)cc1)[*:2]

Test system: rodent tumor promotion studies, tumor incidence
Test: CCRIS tumor promotion studies

For `CCC(C)C(NC(=O)C(CCCNC(=N)N)NC(=O)C(Cc1c[nH]cn1)NC(=O)C(CO)NC(=O)C1CCCN1C(=O)C(CC(=O)O)NC(=O)C(CC(C)C)NC(=O)C(CC(N)=O)NC(=O)C(CCC(N)=O)NC(=O)C(CC(C)C)NC(=O)C(CC(N)=O)NC(=O)C(CCCCN)NC(=O)C(NC(=O)C(NC(=O)C(CO)NC(=O)C(CCSC)NC(=O)C(CCCNC(=N)N)NC(=O)CNC(=O)C(CO)NC(=O)C1CCCN1C(=O)C(C)NC(=O)C(N)CCCCN)C(C)CC)C(C)C)C(=O)NC(CO)C(=O)NC(CC(=O)O)C(=O)NC(CCCNC(=N)N)C(=O)NC(CC(=O)O)C(=O)NC(C(=O)NC(CCSC)C(=O)NCC(=O)NC(Cc1c[nH]c2ccccc12)C(=O)NC(CCSC)C(=O)NC(CC(=O)O)C(=O)NC(Cc1ccccc1)C(N)=O)c1ccc(OS(=O)(=O)O)cc1` (centres undefined) (H-KAPSGRMSIVKNLQNLDPSHRISDRD[X1]MGWMDF-NH2; configuration not given here), the outcome (Carcinogen: AZASERINE, 115-02-6, Doses [Carcinogen]: 30 MG/KG ON DAYS 19, 26, AND 54 OF AGE, Doses [Promoter]: 0, 2.5 UG/KG BW 1/D 3 D/WK FOR 8 MO BEGINNING 4 MO POST FIRST CARCINOGEN DOSE (STUDY DURATION: 8 MO), Route [Carcinogen]: INTRAPERITONEAL, Route [Promoter]: SUBCUTANEOUS, Species: RAT, Strain/Sex: WISTAR/MALE) is given as “pancreas: adenoma” and the outcome (Carcinogen: N-NITROSOBIS(2-OXOPROPYL)AMINE, 60599-38-4, Doses [Carcinogen]: 5 MG/KG 1/WK FOR STUDY DURATION, Doses [Promoter]: 0, 30 IDU/KG 3 D/WK FOR 6 WK (STUDY DURATION: 15 WK), Route [Carcinogen]: SUBCUTANEOUS, Route [Promoter]: SUBCUTANEOUS, Species: HAMSTER, Strain/Sex: SYRIAN/MALE) is given as “pancreas: adenocarcinoma”.
In the case of `CN(CCCC(=O)c1cccnc1)N=O`, the outcome (Carcinogen: Smoke, Doses [Carcinogen]: Exposure to smoke from non-filtered cigarettes for 6 mo, urine cotinine levels suggest equivalence to 1 pack a day human, Doses [Promoter]: 50 mg/kg every 4 wk for total of 4 doses, Route [Carcinogen]: Inhalation, Route [Promoter]: Subcutaneous, Species: Ferret, Strain/Sex: Male ( 9, 12/Group)) is listed as “lung: tumors: squamous cell carcinomas (1/12), adenocarcinomas (3/12) and adenos”.
For `Oc1ccccc1`, the outcome (Carcinogen: 7,12-DIMETHYLBENZ(A)ANTHRACENE, Doses [Carcinogen]: 75 UG, SINGLE DOSE, Doses [Promoter]: 0, 2.5 MG 2/WK FOR 42 WK, Route [Carcinogen]: DERMAL, Route [Promoter]: DERMAL, Species: MOUSE, Strain/Sex: FEMALE) is listed as “integumentary system (skin): carcinoma”.
For `CC(C)C[C@H](NC(=O)[C@H](Cc1ccccc1)NC(=O)CNC(=O)CNC(=O)[C@@H](N)Cc1ccc(O)cc1)C(=O)O`, the outcome (Carcinogen: N-METHYL-N'-NITRO-N-NITROSOGUANIDINE, 70-25-7, Doses [Carcinogen]: 25 UG/ML IN DRINKING WATER FOR 25 WK, Doses [Promoter]: 0, 20 UG/KG 1/2 D BEGINNING POST CARCINOGEN TREATMENT AND CONTINUING FOR THE DURATION OF STUDY (STUDY DURATION: 52 WK), Route [Carcinogen]: ORAL, Route [Promoter]: SUBCUTANEOUS, Species: RAT, Strain/Sex: WISTAR/MALE) is listed as “stomach: adenocarcinoma”.
In the case of `Cc1ccc(O)cc1`, the outcome (Carcinogen: 7,12-DIMETHYLBENZ(A)ANTHRACENE, Doses [Carcinogen]: TOP, Route [Carcinogen]: DERMAL, Route [Promoter]: DERMAL, Species: MOUSE, Strain/Sex: FEMALE) is listed as “integumentary system (skin)”.
In the case of `O=CC=O`, the outcome (Carcinogen: N-METHYL-N'-NITRO-N-NITROSOGUANIDINE, 70-25-7, Doses [Carcinogen]: 100 MG/L IN DRINKING WATER FOR 8 WK, Doses [Promoter]: 0, 0.5% IN DRINKING WATER BEGINNING POST LAST CARCINOGEN DOSE AND CONTINUING FOR 32 WK (STUDY DURATION: 40 WK), Route [Carcinogen]: ORAL, Route [Promoter]: ORAL, Species: RAT, Strain/Sex: WISTAR/MALE) is given as “glandular stomach (pylorus): adenocarcinoma”.
For `S=C=NCCCCCCc1ccccc1`, the outcome (Carcinogen: AZOXYMETHANE, 25843-45-2, Doses [Carcinogen]: 15 MG/KG BW 1/WK FOR 2 WK, Doses [Promoter]: 0, 640 PPM IN DIET BEGINNING 2 WK PRIOR TO CARCINOGEN DOSE (STUDY DURATION: 56 WK), Route [Carcinogen]: SUBCUTANEOUS, Route [Promoter]: ORAL, Species: RAT, Strain/Sex: F344/MALE) is given as “intestine: adenocarcinoma” and the outcome (Carcinogen: N-METHYL-N-BENZYLNITROSAMINE, 937-40-6, Doses [Carcinogen]: 0.5 MG/KG BW 1/WK FOR 15 WK, Doses [Promoter]: 0, 1, 2.5 UMOL/G DIET FOR DURATION OF STUDY BEGINNING 2 WK PRIOR TO CARCINOGEN TREATMENT (STUDY DURATION: 21 WK), Doses [Promoter]: 0, 1, 2.5 UMOL/G DIET FOR DURATION OF STUDY BEGINNING 2 WK PRIOR TO CARCINOGEN TREATMENT (STUDY DURATION: 21 WK), Route [Carcinogen]: SUBCUTANEOUS, Route [Promoter]: ORAL, Species: RAT, Strain/Sex: F344/MALE) is given as “esophagus: tumor”.
